Read-outs that look alike come from different tables or passages of the source.
Assays:
Type in all cases: cell-based
[1] = test system: alpha-smooth muscle actin (α-SMA); experiment: Inhibition of TGF-β induced expression of alpha-smooth muscle actin (α-SMA) in CFSC cells (western blot); details: compound at 10 μM, TGF-β (10 ng/mL), 24 hours, band intensity vs TGF-β only
How it was run: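 CFSC hepatic stellate cells in serum-free DMEM treated 24 h at 37 °C with compound at 10 μM plus TGF-β (10 ng/mL). α-SMA measured by Western blot with β-actin, ECL detection, densitometry. Percent inhibition is decrease in band intensity versus TGF-β-only cells.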

[2] = test system: MDA-MB-231 (breast cancer); experiment: Antiproliferative activity (CCK-8 cell viability), MDA-MB-231; details: Homo sapiens, 72 h; for inhibition at 3.3 µM: Compound concentration: 3.3 μM; for inhibition at 10 µM: Compound concentration: 10 μM; for inhibition at 30 µM: Compound concentration: 30 μM
How it was run: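 Growth inhibition of human MDA-MB-231 breast cancer cells was assessed with a Cell Counting Kit-8. Cells cultured in DMEM plus 10% FBS were seeded at 2,000-5,000 cells/well, treated after attachment, and kept 72 h at 37° C. CCK-8 solution (10 μL) was added for 4 h, and absorbance at 450 nm was compared with DMSO-treated controls.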

HepG2 (liver cancer) = experiment: Antiproliferative activity (CCK-8 cell viability), HepG2; details: Homo sapiens, 72 h; for inhibition at 3.3 µM: Compound concentration: 3.3 μM; for inhibition at 10 µM: Compound concentration: 10 μM; for inhibition at 30 µM: Compound concentration: 30 μM
How it was run: (§1)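 Growth inhibition graded in bands from percent viability against DMSO vehicle, read as CCK-8 absorbance at 450 nm. Compound tested at 3.3, 10 or 30 μM for 72 h, 37 °C; media contained 10% FBS: DMEM for HepG2/SW480, MEM for HeLa, F-12K for A549.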

SW480 (colon cancer) = experiment: Antiproliferative activity (CCK-8 cell viability), SW480; details: Homo sapiens, 72 h; for inhibition at 3.3 µM: Compound concentration: 3.3 μM; for inhibition at 10 µM: Compound concentration: 10 μM; for inhibition at 30 µM: Compound concentration: 30 μM
How it was run: as §1

[3] = test system: B16F10 (malignant melanoma); experiment: Antiproliferative activity (CCK-8 cell viability), B16F10; details: Mus musculus, 72 h; for inhibition at 3.3 µM: B16-F10, Compound concentration: 3.3 μM; for inhibition at 10 µM: B16-F10, Compound concentration: 10 μM; for inhibition at 30 µM: B16-F10, Compound concentration: 30 μM
How it was run: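 Cell growth inhibition was measured in B16F10 malignant melanoma cells with a Cell Counting Kit-8 viability assay. Cells were maintained in DMEM plus 10% fetal bovine serum, seeded at 2,000-5,000 cells/well in 96-well plates, and treated for 72 h at 37° C. Viability was expressed relative to DMSO-treated vehicle control wells.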

[4] = test system: A431 (epidermoid carcinoma); experiment: Antiproliferative activity (CCK-8 cell viability), A431; details: Homo sapiens, 72 h; for inhibition at 3.3 µM: A-431, Compound concentration: 3.3 μM; for inhibition at 10 µM: A-431, Compound concentration: 10 μM; for inhibition at 30 µM: A-431, Compound concentration: 30 μM
How it was run: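 This growth inhibition assay used A431 cells maintained in Dulbecco's modified Eagle's medium plus 10% fetal bovine serum. Cells were seeded in 96-well plates, treated with compound for 72 h at 37° C., and then given 10 μL CCK-8 solution. After a further 4 h, absorbance was read at 450 nm.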

[5] = test system: A549 (lung adenocarcinoma); experiment: Antiproliferative activity (CCK-8 cell viability), A549; details: Homo sapiens, 72 h; for inhibition at 3.3 µM: Compound concentration: 3.3 μM; for inhibition at 10 µM: Compound concentration: 10 μM; for inhibition at 30 µM: Compound concentration: 30 μM
How it was run: as §1

HeLa (cervical cancer) = experiment: Antiproliferative activity (CCK-8 cell viability), HeLa; details: Homo sapiens, 72 h; for inhibition at 3.3 µM: Compound concentration: 3.3 μM; for inhibition at 10 µM: Compound concentration: 10 μM; for inhibition at 30 µM: Compound concentration: 30 μM
How it was run: as §1

[6] = read-out: Antiproliferative activity in cancerous cells, MDA-MB-231 (inhibition of cell growth)
[7] = read-out: Antiproliferative activity in cancerous cells, HepG2 (inhibition of cell growth)
[8] = read-out: Antiproliferative activity in cancerous cells, HepG2
[9] = read-out: Antiproliferative activity in cancerous cells, SW480 (inhibition of cell growth)
[10] = read-out: Antiproliferative activity in cancerous cells, SW480
[11] = read-out: Antiproliferative activity in cancerous cells, B16F10 (inhibition of cell growth)
[12] = read-out: Antiproliferative activity in cancerous cells, B16F10
[13] = read-out: Antiproliferative activity in cancerous cells, A431 (inhibition of cell growth)
[14] = read-out: Antiproliferative activity in cancerous cells, A431
[15] = read-out: Antiproliferative activity in cancerous cells, A549 (inhibition of cell growth)
[16] = read-out: Antiproliferative activity in cancerous cells, A549
[17] = read-out: Antiproliferative activity in cancerous cells, HELA (inhibition of cell growth)
[18] = read-out: Antiproliferative activity in cancerous cells, HELA

SMILES | inhibition at 10 µM [1] | inhibition at 3.3 µM [2, 6] | inhibition at 10 µM [2, 6] | inhibition at 3.3 µM (HepG2 (liver cancer); [7]) | inhibition at 10 µM (HepG2 (liver cancer); [7]) | inhibition at 30 µM (HepG2 (liver cancer); [8]) | inhibition at 3.3 µM (SW480 (colon cancer); [9]) | inhibition at 10 µM (SW480 (colon cancer); [9]) | inhibition at 3.3 µM [3, 11] | inhibition at 10 µM [3, 11] | inhibition at 30 µM [3, 12] | inhibition at 3.3 µM [4, 13] | inhibition at 10 µM [4, 13] | inhibition at 30 µM [4, 14] | inhibition at 3.3 µM [5, 15] | inhibition at 10 µM [5, 15] | inhibition at 30 µM [5, 16] | inhibition at 3.3 µM (HeLa (cervical cancer); [17]) | inhibition at 10 µM (HeLa (cervical cancer); [17]) | inhibition at 30 µM (HeLa (cervical cancer); [18]) | also measured
COc1ccc(Oc2ccc(/C=C3/C(C)=C(CC(=O)O)c4cc(F)ccc43)cn2)cc1 [C35, (Z)-2-(5-Fluoro-1-((6-(4-methoxyphenoxy)pyridin-3-yl)methylene)-2-methyl-1H-inden-3-yl)acetic acid] | < 30% | < 30% | < 30% | < 30% | < 30% | < 30% | < 30% | 30 to 50% | < 30% | < 30% | < 30% | < 30% | < 30% | < 30% | ≥ 50% | ≥ 50% | 30 to 50% | < 30% | < 30% | < 30% | inhibition at 30 µM ([2]; read-out: Antiproliferative activity in cancerous cells, MDA-MB-231): 30 to 50%; inhibition at 30 µM (SW480 (colon cancer); [10]): < 30%
CC1=C(CC(=O)O)c2cc(F)ccc2/C1=C\c1ccc(Sc2nc3ccccc3[nH]2)cc1 [C36, (Z)-2-(1-(4-((1H-Benzo[d]imidazol-2-yl)thio)benzylidene)-5-fluoro-2-methyl-1H-inden-3-yl)acetic acid] | < 30% | < 30% | 30 to 50% | < 30% | < 30% | < 30% | < 30% | 30 to 50% | < 30% | < 30% | 30 to 50% | < 30% | < 30% | < 30% | < 30% | < 30% | 30 to 50% | < 30% | 30 to 50% |  | inhibition at 30 µM (SW480 (colon cancer); [10]): 30 to 50%
CC1=C(CC(=O)N2CCN(CCO)CC2)c2cc(F)ccc2/C1=C\c1ccc(Oc2ccc(F)cc2)cc1 [C37, (Z)-2-(5-Fluoro-1-(4-(4-fluorophenoxy)benzylidene)-2-methyl-1H-inden-3-yl)-1-(4-(2-hydroxyethyl)piperazin-1-yl)ethan-1-one] | > 80% | < 30% | < 30% | < 30% | < 30% |  | < 30% | < 30% | < 30% | < 30% | < 30% | < 30% | < 30% | 30 to 50% | < 30% | < 30% |  | < 30% | < 30% | < 30% | 
CC1=C(CC(=O)NCCN(C)C)c2cc(F)ccc2/C1=C\c1ccc(Oc2ccc(F)cc2)cc1 [C38, (Z)-N-(2-(Dimethylamino)ethyl)-2-(5-fluoro-1-(4-(4-fluorophenoxy)benzylidene)-2-methyl-1H-inden-3-yl)acetamide] | > 80% | < 30% | ≥ 50% | < 30% | ≥ 50% |  | < 30% | ≥ 50% | ≥ 50% | ≥ 50% |  | < 30% | ≥ 50% |  | ≥ 50% | ≥ 50% |  | < 30% | ≥ 50% |  | 
CC1=C(CC(=O)NCCN2CCOCC2)c2cc(F)ccc2/C1=C\c1ccc(Oc2ccc(F)cc2)cc1 [C39, (Z)-2-(5-Fluoro-1-(4-(4-fluorophenoxy)benzylidene)-2-methyl-1H-inden-3-yl)-N-(2-morpholinoethyl)acetamide] | 50 to 80% | < 30% | < 30% | < 30% | < 30% | < 30% | < 30% | < 30% | < 30% | < 30% | < 30% | < 30% | < 30% | < 30% | < 30% | 30 to 50% | 30 to 50% | < 30% | < 30% | < 30% | 
CC(C)c1ccc(/C=C2/C(Cc3ccc(F)cc3)=C(CC(=O)O)c3cc(F)ccc32)cc1 [D2, (Z)-2-(5-Fluoro-2-(4-fluorobenzyl)-1-(4-isopropylbenzylidene)-1H-inden-3-yl)-acetic acid] | > 80% | ≥ 50% | ≥ 50% | < 30% | ≥ 50% |  | < 30% | ≥ 50% | < 30% | ≥ 50% |  | < 30% | ≥ 50% |  | 30 to 50% | ≥ 50% |  | 30 to 50% | ≥ 50% |  | inhibition at 30 µM [2, 6]: ≥ 50%; inhibition at 30 µM (HepG2 (liver cancer); [7]): ≥ 50%; inhibition at 30 µM (SW480 (colon cancer); [9]): ≥ 50%; inhibition at 30 µM [3, 11]: ≥ 50%; inhibition at 30 µM [4, 13]: ≥ 50%; inhibition at 30 µM [5, 15]: ≥ 50%; inhibition at 30 µM (HeLa (cervical cancer); [17]): ≥ 50%
